{"source": "PubChem BioAssay AID396", "biological_target": "14-3-3 protein beta/alpha (Homo sapiens) (UniProt P31946)", "sequence (P31946 whole entry, looked up)": "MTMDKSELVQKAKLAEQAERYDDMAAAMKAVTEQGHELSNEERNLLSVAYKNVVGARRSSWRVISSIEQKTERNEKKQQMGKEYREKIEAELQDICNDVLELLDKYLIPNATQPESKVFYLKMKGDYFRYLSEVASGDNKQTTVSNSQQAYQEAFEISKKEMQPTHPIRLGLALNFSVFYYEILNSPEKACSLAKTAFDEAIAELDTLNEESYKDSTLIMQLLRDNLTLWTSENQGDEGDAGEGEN", "experiment": "YWHAB binders by thermal stabilisation, biophysical, DSF, SYPRO orange, recombinant human protein (AID 396)", "conditions": "at 10 µM, protein 2.3 µM, buffer 10 mM HEPES, pH 7.5, NaCl 150 mM, active compounds read high", "data": [{"compound": "O=c1c(O)c(-c2ccc(O)c(O)c2)oc2cc(O)cc(O)c12", "values": [{"measurement": "Tm shift", "result": 3.13, "unit": "Celsius"}]}]}
